Laboratory results from article PMC7083565, “In vitro metabolism, reaction phenotyping, enzyme kinetics, CYP inhibition and induction potential of ataluren” (Pharmacology Research & Perspectives, 2020).
Like-named read-outs stand apart in the source and are kept apart here.

Columns and labels:
UGT (glucuronidation) = experiment: Ataluren glucuronidation kinetics, human liver microsomes; type: in vitro ADME; conditions: human, pooled human liver microsomes, pH 7.5, HLM, read-out: CLint,u,UGT
Experimental: (§1) Ataluren at 0.5, 2.5, 12.5, 25, 50, 100, 200, and 400 µmol/L, was incubated (n = 3) at 37°C with recombinant human UGT1A9 and with pooled microsomes from human liver, kidney, and intestine (0.025 mg protein/mL, preactivated with alamethicin at 20 µg/mL) in Tris‐HCl buffer (0.1 mol/L, pH 7.5), in the presence of 1 mmol/L EDTA, 5 mmol/L MgCl2, with or without 0.5%, 1%, or 2% BSA. The incubation (100 µL final volume with 0.5% DMSO) was started by adding an equal volume of UDPGA (5 mmol/L) in Tris‐HCl buffer (0.1 mol/L, pH 7.5). After 30 minutes incubation, the incubation mixtures were combined with 0.3 mL of an internal standard solution in acetonitrile with 1% formic acid, followed by membrane plate filtration. The filtrates were used for LC‐MS/MS analysis to quantify the formation of ataluren‐O‐1β‐acyl glucuronide. Detailed LC‐MS/MS conditions are summarized in LC‐MS/MS Analysis section. Ataluren acyl glucuronide formation rate after 30 minutes incubation was calculated using the amount of metabolite formed (pmol) divided by the protein amount in the incubation sample (0.0025 mg) and the incubation time (30 minutes). Ataluren glucuronidation kinetic parameters were determined with and without adjusting BSA binding by nonlinear regression (GraphPad Prism, 5version 5.04, GraphPad Software, Inc.) using Michaelis‐Menten equation which was the best fit compared with other models. The intrinsic clearance was calculated as CLint = Vmax/Km. In order to compare unbound intrinsic clearance by glucuronidation (CLint,u,UGT) in different tissues, CLint,u,UGT was expressed per gram of tissue by correcting the values for the microsomal protein yield, resulting in scaled CLint,u,UGT. Microsomal protein yields of 40.0, 12.8, and 20.6 mg protein/g tissue were used for hepatic, renal, and intestinal data, respectively. ^26
(§2) The high‐throughput membrane ultrafiltration method ^27 was used to determine the fraction unbound in the incubation (n = 3). Incubation mixtures and procedures were essentially the same as the above except that UDPGA (5 mmol/L) was replaced with Tris‐HCl buffer (0.1 mol/L, pH 7.5). After 15 minutes incubation, aliquot was transferred to a Millipore Multiscreen Ultracel‐10 filter plate (10 kDa molecular mass cut off; EMD Millipore). The plate was centrifuged at 37°C and 3710 g. After 30 minutes centrifugation, aliquots of ultrafiltrates and incubation mixtures prior to ultrafiltration were quenched with an internal standard solution in acetonitrile, followed by membrane plate filtration. The filtrates were used for LC‐MS/MS analysis to quantify the concentration of ataluren. The same LC‐MS/MS conditions described above are summarized in LC‐MS/MS Analysis section. The free fraction = Cu/Cm, where Cu is the concentration of ataluren in the ultrafiltrate and Cm is the concentration of ataluren in the incubation system before centrifugation. Unbound Km (Km, u) was recalculated by applying Michaelis‐Menten equation using free ataluren concentrations after correcting BSA binding at each ataluren and BSA concentration level.
(§3) Quantification of ataluren‐O‐1β‐acyl glucuronide formation was conducted on an Accela pump and a PAL autosampler equipped with a TSQ Quantum Ultra mass spectrometer (Thermo Fisher Scientific). A Waters Acquity BEH column (C18, 1.7 µm, 50 × 2.1 mm; Waters Cooperation) was used and maintained at 50°C. The mobile phases were 0.1% formic acid in water (A) and acetonitrile (B). The flow rate was 0.6 mL/min and gradient program was as follows: linear gradient from 0% B to 95% B in 0.5 minutes and hold isocratic at 95% B for 1 minute; linear gradient from 95% B to 0% B in 0.1 minutes and hold isocratic at 0% B for 0.4 minutes. TSQ Quantum Ultra mass spectrometer was equipped with a heated electrospray ionization source operated in negative‐ion mode with a vaporizer temperature of 350°C, capillary temperature of 380°C, and spray voltage of 3 kV. […]

[1] = as above; type: in vitro ADME; conditions: for CLint,u,UGT (scaled) / K m / K m, u / V max: HLM; for CLint,u,UGT (scaled): 40.0 mg protein/g tissue; for K m / K m, u / V max: mean ± SE; for K m / K m, u / V max / fraction unbound at 15 min: n = 3; for fraction unbound at 15 min: human, pooled human liver microsomes incubation mixture, pH 7.5, HLM, mean ± SD, read-out: fu,inc
Experimental: as §1, §2, §3

[2] = DMD patients, oral 10, 10, 20 mg/kg/day (morning, mid-day and evening dose); read-out: mean Cmax at the steady state; cited from earlier work

For `O=C(O)c1cccc(-c2noc(-c3ccccc3F)n2)c1` [ataluren, Ataluren], which microsomal CLint (UGT (glucuronidation); 0% BSA) is on record?
The microsomal CLint was 40.3 µL/min/mg.

What about the microsomal CLint (UGT (glucuronidation); 0.5% BSA) of the same compound?
The microsomal CLint was 326 µL/min/mg.

And the microsomal CLint (UGT (glucuronidation); 1% BSA)?
The microsomal CLint was 421 µL/min/mg.

What about the microsomal CLint (UGT (glucuronidation); 2% BSA) of the same compound?
The microsomal CLint was 313 µL/min/mg.

And the “CLint,u,UGT (scaled)” value ([1]; 0% BSA)?
The value was 1.61 mL/min/g of tissue.

What about the K m ([1]; 0% BSA) of the same compound?
The K m was 29.9 ± 4.49 µM.

And the “K m, u” value ([1]; 0% BSA)?
Its value is 29.9 ± 4.49 µM.

What about the V max ([1]; 0% BSA) of the same compound?
Its V max is 1204 ± 49.0 pmol/min/mg.

And the “CLint,u,UGT (scaled)” value ([1]; 0.5% BSA)?
The value was 13.0 mL/min/g of tissue.

And the K m ([1]; 0.5% BSA)?
Its K m is 54.3 ± 9.42 µM.

What about the “K m, u” value ([1]; 0.5% BSA) of the same compound?
Its value is 4.50 ± 0.748 µM.

What about the V max ([1]; 0.5% BSA) of the same compound?
Its V max is 1465 ± 68.2 pmol/min/mg.

What about the “CLint,u,UGT (scaled)” value ([1]; 1% BSA) of the same compound?
Its value is 16.9 mL/min/g of tissue.

And the K m ([1]; 1% BSA)?
The K m was 67.9 ± 9.19 µM.

And the “K m, u” value ([1]; 1% BSA)?
Its value is 3.00 ± 0.415 µM.

What about the V max ([1]; 1% BSA) of the same compound?
Its V max is 1264 ± 53.5 pmol/min/mg.

What about the “CLint,u,UGT (scaled)” value ([1]; 2% BSA) of the same compound?
The value was 12.5 mL/min/g of tissue.

And the K m ([1]; 2% BSA)?
The K m was 108 ± 10.7 µM.

What about the “K m, u” value ([1]; 2% BSA) of the same compound?
The value was 2.83 ± 0.315 µM.

And the V max ([1]; 2% BSA)?
The V max was 886 ± 34.7 pmol/min/mg.

What about the “maximal effect of BSA on CLint,u (increase)” value ([1]; human liver microsomes, with vs without BSA) of the same compound?
Its value is ~10 fold.

What about the fraction unbound at 15 min ([1]; 0% BSA) of the same compound?
The fraction unbound at 15 min was 1 ± 0.12.

What about the fraction unbound at 15 min ([1]; 0.5% BSA) of the same compound?
Its fraction unbound at 15 min is 0.093 ± 0.006.

And the fraction unbound at 15 min ([1]; 1% BSA)?
The fraction unbound at 15 min was 0.05 ± 0.007.

What about the fraction unbound at 15 min ([1]; 2% BSA) of the same compound?
Its fraction unbound at 15 min is 0.03 ± 0.005.

And the Cmax [2]?
Its Cmax is ~79.9 µM.
